US7329494B2, “Method of detection and quantification of cGMP by using a cGMP-visualizing probe” (Japan Science and Technology Corporation, priority 2000, dated 2008)

Tested on: intracellular cGMP in CGY-Del1-expressing HEK293 cells
Experiment: Intracellular cGMP detected by emission ratio in CGY-expressing HEK293 cells stimulated with NOC-7
Format: cell-based, Human
Method: Human embryonic kidney cells (HEK293) were cultured in Dulbecco's modified eagle medium supplemented with 10% FCS, 1 mM sodium pyruvate, and 0.1 mM nonessential amino acids at 37° C. in 5% CO2, to give HEK293 cells.
The resulting HEK293 cells were transfected by the same method as in Example 2 with CGY-Del1, CGY-Del2, CGY-Del3 and CGY-Del4 expression vectors, to give HEK293 cells expressing each type of CGY.
The cGMP-visualizing probes were used to detect intracellular cGMP generated upon stimulation of the living cells with nitrogen monoxide (NO).
First, to activate the soluble guanylyl cyclase in the HEK293 cells having CGY-Del1 introduced therein obtained in Example 6, NOC-7, a compound for releasing NO spontaneously in a rate-controlled manner, was added to give its final extracellular concentration of 500 μM.
Accordingly, 1 mM 8-Br-cGMP, a phosphodiesterase-resistant analogue of cGMP, was added to the system described above.

Nc1nc2c(nc(Br)n2[C@@H]2O[C@@H]3COP(=O)(O)O[C@H]3[C@H]2O)c(=O)[nH]1 [8-Br-cGMP]
emission ratio on addition after NOC-7-induced decrease and recovery (added 900 seconds after 500 μM NOC-7, 1 mM 8-Br-cGMP): decreased again

O=c1onc2cnc3ccccc3n12 [ODQ]
NOC-7-induced emission ratio change in cells pre-treated with ODQ (10 μM ODQ, 500 μM NOC-7): change in the emission ratio elicited by NOC-7 was not observed

CNCCCN(C)/[N+]([O-])=N/O [NOC-7]
emission ratio upon addition of NOC-7 (500 μM NOC-7): rapidly decreased

CCCOc1ccccc1-c1nc2nn[nH]c2c(=O)[nH]1 [zaprinast]
NOC-7-induced emission ratio change in cells treated with zaprinast (100 μM zaprinast, 500 μM NOC-7): later slower increase in the emission ratio was not observed
